Counter-ions that a name gives are not always drawn. Like-named read-outs stand apart in the source and are kept apart here.
Test system: soybean (Var. Clark)
Test: greenhouse growth regulator test on soybean (Table I)
Assay type: in vivo
Conditions: two weeks after application; for Injury (0-10): 0-10 scale, 0 = no effect, 10 = complete kill; for pest or weed control / pest or weed control at 2241.7 g/ha: Glycine max, foliar, 336 h, read-out: Height (% inhib.); for pest or weed control / pest or weed control at 2241.7 g/ha / Height (% inhib.): relative to control
Text: Limited greenhouse experiments shown that there is promotion of lateral bud growth when compounds are applied at higher concentrations and earlier timings and an increase in soybean pod numbers at lower rates applied just prior to or at the flowering stage. […] Three parameters are reported in Table I to indicate the general spectrum of activity for each evaluated compound including the propensity for releasing lateral bud growth in soybeans. These are: (a) plant height measured as percent inhibition relative to the control; (b) the number of lateral buds per plant; and (c) phytotoxic injury on a scale of 0 to 10 (10 being maximum injury). Sampling compounds were evaluated in the greenhouse in a special growth regulator test. Four to five soybean seeds (Var. Clark) were planted in 4-inch pots with a humus-soil mixture. Two weeks after planting, two uniform plants were selected from each pot for treatment. The candidate compounds were dissolved in acetone-water (1:1), and applied as a foliar spray in a carrier volume of 50 gallons per acre, using a moving belt sprayer at a rate of 1/4, 1/2 and 2 lbs/acre. Six plants were used for each treatment. Two weeks after application, the number of laterals per plant, plant injury (0-10 scale; 0 = no effect, 10 = complete kill,) and the height of each plant were recorded. Untreated plants were used as controls.

Structure (SMILES) | No. Laterals per plant (1/2 lbs/acre foliar spray) | Injury (0-10) (1/2 lbs/acre) | No. Laterals per plant (1/4 lbs/acre foliar spray) | Injury (0-10) (1/4 lbs/acre) | No. Laterals per plant (2 lbs/acre foliar spray) | Injury (0-10) (2 lbs/acre) | pest or weed control (1/4 lbs/acre foliar spray) | pest or weed control at 2241.7 g/ha (2 lbs/acre foliar spray) | Height (% inhib.) (1/2 lbs/acre foliar spray, HCl) | No. Laterals per plant (1/2 lbs/acre foliar spray, HCl) | Injury (0-10) (1/2 lbs/acre, HCl) | Height (% inhib.) (1/4 lbs/acre foliar spray, HCl) | No. Laterals per plant (1/4 lbs/acre foliar spray, HCl) | Injury (0-10) (1/4 lbs/acre, HCl) | Height (% inhib.) (2 lbs/acre foliar spray, HCl) | No. Laterals per plant (2 lbs/acre foliar spray, HCl) | pest or weed control (1/2 lbs/acre foliar spray) | Height (% inhib.) (1/2 lbs/acre foliar spray) | Height (% inhib.) (1/4 lbs/acre foliar spray) | Height (% inhib.) (2 lbs/acre foliar spray)
Clc1ccc(N=Cc2c(Cl)cccc2Cl)cc1Cl [XII, 3,4-dichloro-N-(2,6-dichlorobenzylidene)aniline] | 2 | 1 | 1 | 1 | 6 | 1 | 5% | 18% |  |  |  |  |  |  |  |  |  |  |  | 
Clc1ccc(N=CNc2ccc(Cl)c(Cl)c2)cc1Cl [XXI, n,n'-bis[3,4-dichlorophenyl]formamidine HCl] |  |  |  |  |  |  |  |  | 4 % inhib. | 4 | 1 | 0 % inhib. | 1 | 0 | 20 % inhib. | 5 |  |  |  | 
Clc1ccc(NCNc2ccc(Cl)c(Cl)c2)cc1Cl [II, n,n'-bis[3,4-dichlorophenyl]methanediamine] | 0 | 2 | 2 | 3 | 5 | 2 | 20% | 7% |  |  |  |  |  |  |  |  | 15% |  |  | 
Clc1ccc(C=Nc2cc(Cl)cc(Cl)c2)cc1 [VII, 3,5-dichloro-N-(4-chlorobenzylidene)aniline] | 4 | 0 | 2 | 0 | 5 | 0 |  | 13% |  |  |  |  |  |  |  |  | 9% |  |  | 
CCOC=Nc1ccc(Cl)c(Cl)c1 [XVII, ethyl N-(3,4-dichlorophenyl)formimidate] | 0 | 1 | 2 | 2 | 4 | 6 | 24% | 34% |  |  |  |  |  |  |  |  |  |  |  | 
Clc1ccc(N=Cc2ccccc2Cl)cc1Cl [IX, 3,4-dichloro-N-(2-chlorobenzylidene)aniline] | 4 | 0 | 0 | 0 | 4 | 2 | 0% | 12% |  |  |  |  |  |  |  |  | 23% |  |  | 
Clc1cccc(C=Nc2ccc(Cl)c(Cl)c2)c1 [X, 3,4-dichloro-N-(3-chlorobenzylidene)aniline] | 3 | 1 | 1 | 0 | 3 | 3 | 9% | 13% |  |  |  |  |  |  |  |  | 14% |  |  | 
Clc1ccc(N=CNc2ccc(Cl)c(Cl)c2)cc1Cl [XV, n,n'-bis[3,4-dichlorophenyl]formamidine] | 2 | 2 | 2 | 2 | 2 | 1 |  |  |  |  |  |  |  |  |  |  |  | 15 % inhib. | 23 % inhib. | 4 % inhib.
O=CNc1ccc(Cl)c(Cl)c1 [XIX, 3',4'-dichloroformanilide] | 0 | 0 | 5 | 1 | 4 | 3 | 2% | 13% |  |  |  |  |  |  |  |  | 0% |  |  | 
Clc1cccc(C=Nc2cc(Cl)cc(Cl)c2)c1 [VI, 3,5-dichloro-N-(3-chlorobenzylidene)aniline] | 3 | 1 | 2 | 2 | 5 | 1 |  | 13% |  |  |  |  |  |  |  |  | 21% |  |  | 

— patent publication US4119667A, “Haloaniline derivatives as plant growth modifiers” (Rohm and Haas Company, priority 1974, dated 1978)
